From publication PMC7598271, “In Vitro Studies to Define the Cell-Surface and Intracellular Targets of Polyarginine-Conjugated Sodium Borocaptate as a Potential Delivery Agent for Boron Neutron Capture Therapy” (Cells, 2020)

Experiments:
U251MG cells = test: Immunofluorescent analysis of cellular uptake with anti-BSH antibody; assay type: cell-based, human; settings: U251 glioma cells, 20 µM, immunofluorescent analysis (Figure 1B)
Experimental: Human glioma cell lines U87MG and U251MG, human breast cancer cell lines MCF7 and MDA-MB-231, human pancreatic cancer cell lines CFPAC1 and PANC1, and murine mammary gland cell line NMuMG, were cultured in Dulbecco’s modified Eagle’s medium (DMEM) (FUJIFILM Wako Pure Chemical Corporation, Osaka, Japan) with 10% fetal bovine serum (FBS) (Corning Inc., Corning, NY, USA) and penicillin/streptomycin/L-glutamine (Fujifilm-Wako, Japan) as previously described. U87MG, MDA-MB-231, CFPAC-1, PANC-1, and NMuMG were obtained from the American Type Culture Collection (ATCC, Manassas, VA, USA) (catalogue number: HTB-14, HTB-26, CRL-1918, CRL-1469, and CRL-1636, respectively). U251MG and MCF7 were obtained from the Japanese Collection of Research Bioresources Cell Bank (JCRB, Ibaraki, Japan) (catalogue number: IFO50288 and JCRB0134, respectively).
(§1) The immunostaining of cells was performed as previously described with brief modifications. The cells were fixed with 4% paraformaldehyde (PFA) for 15 min, permeated with 0.05% Triton X-100 for 10 min, and blocked with 5% goat serum. Then, the samples were incubated with primary antibodies for 16 h at 4 °C and secondary antibodies for 1 h at room temperature. Primary antibodies against CD44 were purchased from Abcam (Cambridge, UK) (ab157107). Antibodies against the BSH molecule (clone#: 36-2H or 38-5C) were developed by ITM Co., Ltd. (Nagano, Japan). […]

CD44 protein = test: Immunoprecipitation with anti-BSH antibody and Western blotting for CD44; assay type: binding, human; settings: MDA-MB-231 cell lysate 2000 µg/mL, compound 20 µM, 1 h at 4 °C, anti-BSH antibody 10 µg/mL, Western blotting (Figure 3A)
Experimental: (§2) Western blotting was performed as previously described. The cells were lysed in cell lysis buffer (20 mM Tris-HCl (pH =7.5), 150 mM NaCl, 1 mM EDTA, 1 mM Na2EGTA (ethylene glycol-bis(β-aminoethyl ether)-N,N,N′,N′-tetraacetic acid), 0.5% Triton X-100) supplemented with cOmplete Protease Inhibitor Cocktail (Sigma-Aldrich Co. LLC, St. Louis, MO, USA), and PhosSTOP phosphatase inhibitor cocktail (Sigma-Aldrich Co. LLC, St. Louis, MO, USA). After sonication and centrifugation (15,000 rpm, 4 °C, 10 min), the protein concentration of the supernatants was measured using a bicinchoninic acid (BCA) protein assay (Thermo Fisher Scientific, Inc., Waltham, MA, USA). The supernatants were added to 1/3 volume of 4x SDS sample buffer (240 mM Tris-HCl (pH=6.8), 8% sodium dodecyl sulfate (SDS), 40% glycerol, 0.1% bromophenol blue, 20% 2-mercaptoethanol) and boiled at 95 °C for 5 min. Then, the samples were applied to SDS-polyacrylamide gel electrophoresis (PAGE) and transferred to polyvinylidene fluoride (PVDF) membrane (Immobilon-P, 0.45 µm) (MilliporeSigma, Burlington, MA, USA). […] The signals were developed with Clarity Western enhanced chemiluminescence (ECL) Substrate (Bio-Rad Laboratories, Inc., Hercules, CA, USA) and detected with a ChemiDoc imaging system (Bio-Rad Laboratories, Inc., Hercules, CA, USA). […]

[1] = test system: NMuMG-GFP, NMuMG-HRas/shp53 and NMuMG-HRas/shp53/YAP1 cells; test: Immunofluorescent analysis of uptake in transformed NMuMG cells; assay type: cell-based, murine; settings: BSH 2 mM, NMuMG-HRas/shp53, NMuMG-HRas/shp53/YAP1 (Figure 4C)
From the text: For transformation of the NMuMG cells, we prepared virus particles of pTomo-HRas/shRNA-p53 (Vector plasmid was a kind gift from Dr. Dinorah Morvinski, Tel Aviv University), pTomo (Addgene, #26291), FUW-tetO-wtYAP (Addgene, #84009), and FUdeltaGW-rtTA (Addgene, #19780), and infected cells in the same manner as written above. After the infection of pTomo viruses (pTomo-HRas/shRNA-p53 was used for malignant transformation, with pTomo for a negative control), the cells were further treated with adenovirus harboring Cre recombinase (cat#ADV-005) (Cell Biolabs Inc., San Diego, CA, USA), to activate the HRas expression cassette. The transformation was confirmed by the acquisition of the spheroid-forming capacity and morphological change (epithelial to spindle form).
as §1

[2] = molecular target: T1, poly(A)-binding protein 1 (PABP1) (Homo sapiens, UniProt P11940); test: Immunoprecipitation with anti-BSH antibody from U251 cell lysate, Western blotting
T1 construct: we performed immunoprecipitation from the pre-cleaned lysate of U251 cells; endogenous in cells; host or cells: U251 (U251MG) glioma cells
T1 sequence (P11940 whole entry): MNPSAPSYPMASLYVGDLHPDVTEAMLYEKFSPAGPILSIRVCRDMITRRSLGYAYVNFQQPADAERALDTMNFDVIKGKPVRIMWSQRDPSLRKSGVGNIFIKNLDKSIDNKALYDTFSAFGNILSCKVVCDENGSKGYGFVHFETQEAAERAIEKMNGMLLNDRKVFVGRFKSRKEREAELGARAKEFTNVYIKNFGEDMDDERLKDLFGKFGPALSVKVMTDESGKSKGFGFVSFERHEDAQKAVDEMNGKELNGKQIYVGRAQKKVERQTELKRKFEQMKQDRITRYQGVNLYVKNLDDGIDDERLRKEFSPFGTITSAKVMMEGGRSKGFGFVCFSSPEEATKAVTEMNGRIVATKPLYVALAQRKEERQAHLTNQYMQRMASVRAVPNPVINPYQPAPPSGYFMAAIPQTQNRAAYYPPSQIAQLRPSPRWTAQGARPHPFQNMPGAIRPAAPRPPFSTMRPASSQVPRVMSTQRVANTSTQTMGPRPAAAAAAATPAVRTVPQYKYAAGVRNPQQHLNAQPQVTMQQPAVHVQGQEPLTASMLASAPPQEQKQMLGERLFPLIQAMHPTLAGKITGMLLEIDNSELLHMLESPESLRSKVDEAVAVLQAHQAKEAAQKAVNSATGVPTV
Experimental: (§3) Western blotting was performed as previously described. The cells were lysed in cell lysis buffer (20 mM Tris-HCl (pH =7.5), 150 mM NaCl, 1 mM EDTA, 1 mM Na2EGTA (ethylene glycol-bis(β-aminoethyl ether)-N,N,N′,N′-tetraacetic acid), 0.5% Triton X-100) supplemented with cOmplete Protease Inhibitor Cocktail (Sigma-Aldrich Co. LLC, St. Louis, MO, USA), and PhosSTOP phosphatase inhibitor cocktail (Sigma-Aldrich Co. LLC, St. Louis, MO, USA). After sonication and centrifugation (15,000 rpm, 4 °C, 10 min), the protein concentration of the supernatants was measured using a bicinchoninic acid (BCA) protein assay (Thermo Fisher Scientific, Inc., Waltham, MA, USA). The supernatants were added to 1/3 volume of 4x SDS sample buffer (240 mM Tris-HCl (pH=6.8), 8% sodium dodecyl sulfate (SDS), 40% glycerol, 0.1% bromophenol blue, 20% 2-mercaptoethanol) and boiled at 95 °C for 5 min. Then, the samples were applied to SDS-polyacrylamide gel electrophoresis (PAGE) and transferred to polyvinylidene fluoride (PVDF) membrane (Immobilon-P, 0.45 µm) (MilliporeSigma, Burlington, MA, USA). The membranes were blocked with 0.5% skim milk (nacalai tesque, Kyoto, Japan) in tris-buffered saline with tween20 (TBST, 137 mM NaCl, 2.68 mM KCl, 25 mM Tris (pH=7.4), 0.1% Tween20) and incubated with primary antibodies for 16 h at 4 °C and secondary antibodies for 1 h at room temperature. The signals were developed with Clarity Western enhanced chemiluminescence (ECL) Substrate (Bio-Rad Laboratories, Inc., Hercules, CA, USA) and detected with a ChemiDoc imaging system (Bio-Rad Laboratories, Inc., Hercules, CA, USA).
(§4) Immunoprecipitation was performed as previously described with modification. Briefly, the cells were lysed in cell lysis buffer supplemented with cOmplete Protease Inhibitor Cocktail and PhosSTOP phosphatase inhibitor cocktail. The lysate was passed through a 23G needle syringe 10 times and centrifuged at 15,000 rpm, at 4 °C, for 10 min. […]

eIF4G = molecular target: T2, eIF4G (Homo sapiens, UniProt Q04637); test: as above; assay type: binding
T2 construct: we performed immunoprecipitation from the pre-cleaned lysate of U251 cells; endogenous in cells; host or cells: U251 (U251MG) glioma cells
T2 sequence (Q04637 whole entry): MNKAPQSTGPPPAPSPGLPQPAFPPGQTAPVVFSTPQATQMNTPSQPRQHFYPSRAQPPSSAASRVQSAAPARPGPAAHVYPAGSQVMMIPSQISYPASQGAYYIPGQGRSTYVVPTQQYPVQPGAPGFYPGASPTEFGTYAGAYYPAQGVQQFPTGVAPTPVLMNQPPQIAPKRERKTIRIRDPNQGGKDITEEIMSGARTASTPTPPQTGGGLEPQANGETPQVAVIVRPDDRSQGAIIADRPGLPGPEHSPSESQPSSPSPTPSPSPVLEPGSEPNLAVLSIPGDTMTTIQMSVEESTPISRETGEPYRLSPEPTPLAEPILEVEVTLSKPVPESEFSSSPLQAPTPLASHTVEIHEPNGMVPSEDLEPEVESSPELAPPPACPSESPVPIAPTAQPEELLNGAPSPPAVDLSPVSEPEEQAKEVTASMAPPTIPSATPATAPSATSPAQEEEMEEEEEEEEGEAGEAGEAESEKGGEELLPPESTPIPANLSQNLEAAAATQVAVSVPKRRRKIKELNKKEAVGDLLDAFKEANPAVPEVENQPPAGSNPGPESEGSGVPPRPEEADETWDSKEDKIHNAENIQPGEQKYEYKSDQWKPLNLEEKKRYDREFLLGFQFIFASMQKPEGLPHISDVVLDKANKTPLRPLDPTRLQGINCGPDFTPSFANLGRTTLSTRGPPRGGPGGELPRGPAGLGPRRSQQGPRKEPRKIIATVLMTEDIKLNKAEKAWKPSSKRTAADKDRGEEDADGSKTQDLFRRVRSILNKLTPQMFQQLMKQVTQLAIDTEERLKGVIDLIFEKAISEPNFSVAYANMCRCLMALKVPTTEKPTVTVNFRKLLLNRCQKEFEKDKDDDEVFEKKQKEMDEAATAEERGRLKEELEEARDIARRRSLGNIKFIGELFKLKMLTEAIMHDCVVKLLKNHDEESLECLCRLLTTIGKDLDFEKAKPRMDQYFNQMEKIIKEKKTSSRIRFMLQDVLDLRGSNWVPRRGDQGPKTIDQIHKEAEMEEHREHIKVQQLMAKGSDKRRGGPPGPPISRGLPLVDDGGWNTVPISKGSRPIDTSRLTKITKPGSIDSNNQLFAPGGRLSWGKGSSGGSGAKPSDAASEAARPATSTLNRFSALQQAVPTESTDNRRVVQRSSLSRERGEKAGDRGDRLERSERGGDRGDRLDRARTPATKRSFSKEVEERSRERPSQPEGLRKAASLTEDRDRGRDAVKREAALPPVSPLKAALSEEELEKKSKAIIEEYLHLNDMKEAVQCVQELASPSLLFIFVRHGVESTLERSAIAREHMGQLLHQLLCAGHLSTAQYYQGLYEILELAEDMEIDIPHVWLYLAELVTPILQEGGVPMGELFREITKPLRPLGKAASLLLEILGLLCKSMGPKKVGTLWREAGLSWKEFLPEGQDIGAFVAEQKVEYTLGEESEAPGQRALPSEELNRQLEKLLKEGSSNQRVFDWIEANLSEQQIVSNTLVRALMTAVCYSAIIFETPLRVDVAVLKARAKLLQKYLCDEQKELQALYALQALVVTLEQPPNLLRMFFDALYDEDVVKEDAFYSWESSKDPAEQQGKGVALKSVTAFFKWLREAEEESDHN
Experimental: as §3, §4

eRF3 = molecular target: T3, eRF3 (Homo sapiens, UniProt P15170); test: as above; assay type: binding; settings: lysate with or without 10 µg/mL RNase A, 1 h at room temperature (Figure 6B)
T3 construct: we performed immunoprecipitation from the pre-cleaned lysate of U251 cells; endogenous in cells; host or cells: U251 glioma cell lysate
T3 sequence (P15170 whole entry): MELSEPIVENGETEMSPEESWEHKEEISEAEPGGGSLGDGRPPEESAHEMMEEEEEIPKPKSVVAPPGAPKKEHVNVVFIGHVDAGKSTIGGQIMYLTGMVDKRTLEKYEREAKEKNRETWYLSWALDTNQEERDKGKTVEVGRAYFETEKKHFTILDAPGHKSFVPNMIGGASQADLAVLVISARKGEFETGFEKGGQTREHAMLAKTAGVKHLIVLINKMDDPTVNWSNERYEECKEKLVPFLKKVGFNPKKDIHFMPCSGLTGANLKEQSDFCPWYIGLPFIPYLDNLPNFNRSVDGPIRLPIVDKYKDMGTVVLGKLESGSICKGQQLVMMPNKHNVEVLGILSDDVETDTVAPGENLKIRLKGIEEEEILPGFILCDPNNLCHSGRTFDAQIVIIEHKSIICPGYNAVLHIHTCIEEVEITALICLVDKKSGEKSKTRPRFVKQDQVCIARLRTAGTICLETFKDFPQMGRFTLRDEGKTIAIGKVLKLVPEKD
Experimental: as §3, §4

eIF4A = molecular target: T4, eIF4A (Homo sapiens, UniProt P60842); test: as above; assay type: binding; settings: lysate with or without 10 µg/mL RNase A, 1 h at room temperature (Figure 6B)
T4 construct: we performed immunoprecipitation from the pre-cleaned lysate of U251 cells; endogenous in cells; host or cells: U251 glioma cell lysate
T4 sequence (P60842 whole entry): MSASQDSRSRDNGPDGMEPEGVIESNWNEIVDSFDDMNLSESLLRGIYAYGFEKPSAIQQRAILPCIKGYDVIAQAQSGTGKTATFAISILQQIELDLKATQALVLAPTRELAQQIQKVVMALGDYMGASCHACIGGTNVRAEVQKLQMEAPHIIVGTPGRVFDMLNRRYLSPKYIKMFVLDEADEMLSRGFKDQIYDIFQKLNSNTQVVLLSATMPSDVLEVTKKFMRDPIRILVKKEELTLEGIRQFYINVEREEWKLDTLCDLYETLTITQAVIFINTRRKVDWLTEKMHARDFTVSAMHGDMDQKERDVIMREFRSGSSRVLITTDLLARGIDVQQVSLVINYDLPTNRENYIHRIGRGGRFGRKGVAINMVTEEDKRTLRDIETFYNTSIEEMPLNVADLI
Experimental: as §2

[3] = immunoprecipitation with 20 µM of BSH, BSH-3R, BSH-11R (Figure 7A)
[4] = lysate with or without 10 µg/mL RNase A, 1 h at room temperature (Figure 6B)

## mercaptoundecahydrododecaborate [BSH]
U251MG cells
  passage through the plasma membrane: could not
CD44 protein
  co-precipitation of CD44 protein with anti-BSH antibody: failed to precipitate CD44
[1]
  BSH immunofluorescent signal in cells: did not show any signals in all types of cells
[2]; [3]
  PABP1 binding, dependence on arginine length: bound to BSH in an RNA-dependent manner
[2]; [4]
  RNA dependence of binding to PABP1: bound to PABP1 in the presence of RNA
[2]; pre-cleaned U251 lysate, 20 µM (Figure 6A)
  binding to PABP1 (immunoprecipitation): had a binding capacity with poly(A)-binding protein 1 (PABP1)
eIF4G; [3]
  eIF4G binding, dependence on arginine length: did not observe a significant difference
eIF4G; [4]
  RNA dependence of binding to eIF4G: little eIF4G was pulled-down with BSH in the presence of RNA
eRF3
  binding to eRF3: did not bind to BSH
eIF4A
  RNA dependence of binding to eIF4A: did not bind to BSH in the presence or absence of RNA
